Several values for one entry are separate records, joined by “and”; a condition that tells them apart may be missing. Identical values can stand only once. Like-named read-outs stand apart in the source and are kept apart here.
Tests used:
[1] = target: T1, MIF (Homo sapiens, UniProt P14174); test: Tautomerase assay (in vitro tautomerase inhibitory activity); assay type: biochemical; settings: for MIF inhibitory activity, comparison of Compound 200 and Compound 203: in vitro activity, comparison of Table 2 (tautomerase; THP-1/MIF for 200 only); for in vitro tautomerase inhibitory activity: several different concentrations, FIG. 2 / FIG. 3
T1 sequence (P14174 2-115 limits assumed): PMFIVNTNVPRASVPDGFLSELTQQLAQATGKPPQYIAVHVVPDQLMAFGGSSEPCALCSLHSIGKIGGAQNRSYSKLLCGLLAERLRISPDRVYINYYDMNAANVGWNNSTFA
Source text: An alternative in vitro assay is designed to measure the ability of MIF to catalyze tautomerization of the D-isomer of dopachrome (see Rosengren et al., Mol. Med. 2:143-149, 1996; Winder et al., J. Cell Sci. 106:153-166, 1993; Aroca et al., Biochem. J. 277:393-397). Briefly, in this method, D-dopachrome is provided to MIF in the presence and absence of a candidate inhibitor and the ability to catalyze the tautomerization to 5,6-dihydroxyindole-2-carboxylic acid (DHICA) is monitored. However, use of methyl esters of D-dopachrome may be preferred in that a faster reaction rate is observed. Detection of the tautomerization can be performed by any one of a variety of standard methods.
In a similar assay, the ability of MIF to catalyze the tautomerization of phenylpyruvate may be tested (see Johnson et al., Biochem. 38(48):16024-16033, 1999). Briefly, in this method, typically ketonization of phenylpyruvate or (p-hydroxyphenyl)pyruvate is followed by spectroscopy. Further, product formation may be verified by treatment of these compounds with MIF and subsequent conversion to malate for ^1H NMR analysis.
The tautomerization reaction is carried out essentially as described by Rosengren et al., Mol. Med 2(1):143-149, 1996. D-dopachrome conversion to 5,6-dihydroxyindole-2-carboxylic acid is assessed. 1 ml sample cuvettes containing 0.42 mM substrate and 1.4 μg of MIF in a sample solution containing 0.1 mM EDTA and 10 mM sodium phosphate buffer, pH 6.0 are prepared and the rate of decrease in iminochrome absorbance is followed at 475 nm. L-dopachrome is employed as a control. In addition, the reaction products can be followed using an HPLC, utilizing a mobile phase including 20 mM KH2PO4 buffer (pH 4.0) and 15% methanol with a flow rate of 1.2 ml/min. Fluorimetric detection is followed at 295/345 nm.
Alternatively, the tautomerization reaction utilizing phenylpyruvate or (p-hydroxyphenyl)pyruvate is carried out essentially as described by Johnson et al., Biochem. 38:16024-16033, 1999. In this version, ketonization of phenylpyruvate is monitored at 288 nm (ε=17300 M^−1 cm^−1) and the ketonization of (p-hydroxyphenyl)pyruvate is monitored at 300 nm (ε=21600 M^−1 cm^−1). The assay mixture contains 50 mM Na2HPO4 buffer (1 mL, pH 6.5) and an aliquot of a solution of MIF sufficiently dilute (0.5-1.0 μL of a 2.3 mg/mL solution, final concentration of 93-186 nM) to yield an initial liner rate. The assay is initiated by the addition of a small quantity (1-3.3 μL) of either phenylpyruvate or (p-hydroxyphenyl)pyruvate from stock solutions made up in ethanol. The crystalline forms of phenylpyruvate and (p-hydroxyphenyl)pyruvate exist exclusively as the enol isomers (Larsen et al., Acta Chem. Scand. B 28:92-96, 1974).

[2] = target: T2, MIF produced by THP-1 cells (Homo sapiens, UniProt P14174); test: THP-1 Cell Assay (THP-1/MIF inhibition, ELISA with anti-MIF monoclonal antibody); assay type: cell-based
T2 construct: a test cell may express the MIF naturally (e.g., THP-1 cells); endogenous in cells; host or cells: THP-1 cells, LPS-stimulated; conditioned supernatant
T2 sequence (P14174 2-115 limits assumed): T1 sequence (P14174 2-115 limits assumed)
Source text: The assays may generally be divided into three categories, those being, assays which monitor export; those which monitor effector or small molecule binding, and those that monitor MIF activity. However, it should be noted that combinations of these assays are within the scope of the present application. […] In an alternative, these two assays (i.e., binding and activity assays) may be combined into a singular assay which detects binding of a test compound (e.g., the ability to displace monoclonal antibodies or inhibit their binding) while also affecting MIF activity. Such assays include combining an ELISA type assay (or similar binding assay) with a MIF tautomerism assay or similar functional assay. As one of ordinary skill in the art may readily recognize, the exact assay employed is irrelevant, provided it is able to detect the ability of the compound of interest to bind MIF.
Varying concentrations of inhibitor analogs are added to LPS stimulated THP-1 cells and allowed to incubate overnight. The following day the amount of immunoreactive MIF detected is evaluated by ELISA.
The high throughput screening assay for MIF inhibitors is performed in a 96-well format using MIF produced by THP-1 cells and is performed as follows. MIF assays are performed by ELISA as indicated above. […] The amount of MIF is calculated by interpolation from an MIF standard curve.

[3] = average of the determinations, read-out: Average IC 50 (Tautomerase Assay)
[4] = single determinations, range in brackets, read-out: Tautomerase Assay (Inhibitory Concentration (IC) of 50 μm)

N#Cc1c(N2CCN(C(=O)C3CCCS3)CC2)c2ccccc2n(Cc2ccc(F)cc2)c1=O (stereo not drawn) [Compound 102, 1-(4-Fluoro-benzyl)-2-oxo-4-[4-(tetrahydro-thiophene-2-carbonyl)-piperazin-1-yl]-1,2-dihydro-quinoline-3-carbonitrile]
melting point: 133 to 140 °C

N#Cc1c(N2CCN(C(=O)c3ccc(C(F)(F)F)cc3)CC2)c2ccccc2n(Cc2ccc(F)cc2)c1=O [Compound 100, 1-(4-Fluoro-benzyl)-2-oxo-4-[4-(4-trifluoromethyl-benzoyl)-piperazin-1-yl]-1,2-dihydro-quinoline-3-carbonitrile]
melting point: 181 to 185 °C

N#Cc1c(N2CCN(C(=O)c3cccs3)CC2)c2ccccc2n(Cc2ccc(F)cc2)c1=O [Compound 203]
IC50 [1, 3]: 98 nM
MIF inhibitory activity, comparison of Compound 200 and Compound 203 [1]: satisfactory MIF inhibitory activity
in vitro tautomerase inhibitory activity [1]: exhibits MIF inhibitory activity
IC50 [1, 4]: 98 nM

N#Cc1c(N2CCN(C(=O)c3ccc4ccccc4n3)CC2)c2ccccc2n(Cc2ccc(F)cc2)c1=O [Compound 96, 1-(4-Fluoro-benzyl)-2-oxo-4-[4-(quinoline-2-carbonyl)-piperazin-1-yl]-1,2-dihydro-quinoline-3-carbonitrile]
melting point: 144 to 157 °C

Cc1cc(C(=O)N2CCN(c3c(C#N)c(=O)n(Cc4ccc(F)cc4)c4ccccc34)CC2)no1 [Compound 97, 1-(4-Fluoro-benzyl)-4-[4-(5-methyl-isoxazole-3-carbonyl)-piperazin-1-yl]-2-oxo-1,2-dihydro-quinoline-3-carbonitrile]
melting point: 130 to 137 °C

N#Cc1c(N2CCN(C(=O)c3ccc4c(c3)OCO4)CC2)c2ccccc2n(Cc2ccc(F)cc2)c1=O [Compound 99, 4-[4-(Benzo[1,3]dioxole-5-carbonyl)-piperazin-1-yl]-1-(4-fluoro-benzyl)-2-oxo-1,2-dihydro-quinoline-3-carbonitrile]
melting point: 140 to 160 °C

Cn1c(=O)c(C#N)c(N2CCN(C(=O)c3cccs3)CC2)c2ccccc21 [Compound 200]
IC50 [1, 3]: 320 nM
MIF inhibitory activity, comparison of Compound 200 and Compound 203 [1]: satisfactory MIF inhibitory activity
in vitro tautomerase inhibitory activity [1]: exhibits MIF inhibitory activity
IC50 [1, 4]: 300 nM and 340 nM
IC50 ([2]; average of the determinations, read-out: Average IC 50 (THP-1/MIF Inhibition)): 150 nM
MIF inhibitory activity in the THP-1 Cell Assay ([2]; several different concentrations, FIG. 1): exhibits MIF inhibitory activity

N#Cc1c(N2CCN(C(=O)c3c[nH]cn3)CC2)c2ccccc2n(Cc2ccc(F)cc2)c1=O [Compound 101, 1-(4-Fluoro-benzyl)-4-[4-(1H-imidazole-4-carbonyl)-piperazin-1-yl]-2-oxo-1,2-dihydro-quinoline-3-carbonitrile]
melting point: 176 to 183 °C

N#Cc1c(N2CCN(C(=O)C3CCCO3)CC2)c2ccccc2n(Cc2ccc(F)cc2)c1=O (stereo not drawn) [Compound 98, 1-(4-Fluoro-benzyl)-2-oxo-4-[4-(tetrahydro-furan-2-carbonyl)-piperazin-1-yl]-1,2-dihydro-quinoline-3-carbonitrile]
melting point: 123 to 135 °C

N#Cc1c(N2CCN(C(=O)c3cnccn3)CC2)c2ccccc2n(Cc2ccc(F)cc2)c1=O [Compound 95, 1-(4-Fluoro-benzyl)-2-oxo-4-[4-(pyrazine-2-carbonyl)-piperazin-1-yl]-1,2-dihydro-quinoline-3-carbonitrile]
melting point: 145 to 156 °C

From US7312221B2, “Inhibitors of macrophage migration inhibitory factor and methods for identifying the same” (Avanir Pharmaceuticals, priority 2003, dated 2007)
